ChEMBL document CHEMBL3886805, “Pyrrolotriazinone derivatives as PI3K inhibitors” (2016)

Each molecule was assayed against T1, Phosphatidylinositol 4,5-bisphosphate 3-kinase catalytic subunit delta isoform (Homo sapiens, UniProt O00329) (assay: [PIP2] was used at its Km.).
T1 sequence (O00329 whole entry): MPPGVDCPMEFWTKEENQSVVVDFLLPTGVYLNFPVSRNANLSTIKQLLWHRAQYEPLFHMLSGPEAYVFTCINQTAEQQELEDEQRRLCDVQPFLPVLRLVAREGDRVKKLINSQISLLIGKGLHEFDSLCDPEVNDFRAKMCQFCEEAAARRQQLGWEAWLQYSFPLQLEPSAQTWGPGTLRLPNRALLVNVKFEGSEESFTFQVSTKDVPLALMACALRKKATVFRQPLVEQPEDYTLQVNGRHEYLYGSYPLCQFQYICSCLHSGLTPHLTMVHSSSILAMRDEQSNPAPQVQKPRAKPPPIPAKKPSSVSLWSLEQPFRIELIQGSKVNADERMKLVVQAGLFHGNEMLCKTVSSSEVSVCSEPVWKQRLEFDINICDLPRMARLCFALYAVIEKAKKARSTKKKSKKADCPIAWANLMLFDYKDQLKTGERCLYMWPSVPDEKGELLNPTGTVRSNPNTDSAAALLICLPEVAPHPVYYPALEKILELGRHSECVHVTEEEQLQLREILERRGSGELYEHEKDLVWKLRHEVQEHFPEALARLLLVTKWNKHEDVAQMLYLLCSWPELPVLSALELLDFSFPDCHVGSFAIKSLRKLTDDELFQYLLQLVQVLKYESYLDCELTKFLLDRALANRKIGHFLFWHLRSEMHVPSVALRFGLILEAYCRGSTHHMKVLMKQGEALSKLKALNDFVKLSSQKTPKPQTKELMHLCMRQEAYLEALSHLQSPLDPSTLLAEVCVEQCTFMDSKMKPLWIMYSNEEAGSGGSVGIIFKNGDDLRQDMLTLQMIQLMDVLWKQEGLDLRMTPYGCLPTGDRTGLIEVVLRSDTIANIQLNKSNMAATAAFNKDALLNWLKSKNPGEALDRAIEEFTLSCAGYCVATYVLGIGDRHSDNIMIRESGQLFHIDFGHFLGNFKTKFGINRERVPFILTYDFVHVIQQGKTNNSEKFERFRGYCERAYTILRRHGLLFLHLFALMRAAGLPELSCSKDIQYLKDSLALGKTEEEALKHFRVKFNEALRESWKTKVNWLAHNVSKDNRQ

Structure (SMILES)	IC50 [nM]
Cc1ccn2nc([C@H](C)Nc3ncnc(N)c3C(=O)Nc3cccc(O)c3)n(-c3ccccc3)c(=O)c12	3
Cc1ccn2nc([C@H](C)Nc3ncnc(N)c3C(=O)Nc3cc(C(N)=O)ccc3O)n(-c3ccccc3)c(=O)c12	3
COc1ccc(S(=O)(=O)n2ncc3ccc(-c4c(N)ncnc4N[C@@H](C)c4nn5ccc(C)c5c(=O)n4-c4ccccc4)cc32)cc1	0.4
COc1ncc(-c2c(N)ncnc2N[C@@H](C)c2nn3ccc(Br)c3c(=O)n2-c2ccccc2)cc1NS(C)(=O)=O	25
COc1ncc(-c2c(N)ncnc2N[C@@H](C)c2nn3ccc(C)c3c(=O)n2-c2ccccc2)cc1NS(=O)(=O)C(F)(F)F	1
C[C@H](Nc1ncnc(N)c1C#N)c1nn2ccc(Sc3ccc(O)c(F)c3)c2c(=O)n1-c1ccccc1	2
